Among the data in PubChem BioAssay (NCI) are TGI and GI50 values, retold here.

The structures appear in SMILES notation. Where “and” joins values, the source holds several entries; their conditions need not be identical. Equal values may be shown once.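 In this assay, cells in 96-well plates receive the compound at five concentrations for 48 hours. Endpoints are linearly interpolated between the surrounding concentrations. Here, GI50 denotes the concentration required for 50% inhibition of growth. TGI: total growth inhibition.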 Bounds are passed on as bounds.

Some test systems named below: A549 NSCLC; CAKI-1 renal; EKVX NSCLC; OVCAR-5 ovarian; SF-539 CNS; SNB-19 CNS; TK-10 renal; UO-31 renal; HCC-2998 colon; IGROV1 ovarian.
Holding throughout (assay): DTP human tumour cell line panel, 48 h

On to `CC(C)(C)c1cc(C(=O)O)c(C(c2ccccc2)c2ccccc2C(=O)O)c(C(=O)O)c1` (stereo not drawn), for which the TGI with A549 NSCLC, in the test on CAKI-1 renal, in the test with EKVX NSCLC, in the test on OVCAR-5 ovarian, in the test on SF-539 CNS and in the test on SNB-19 CNS was greater than 100 µM throughout. Moreover, the TGI with TK-10 renal and with UO-31 renal was greater than 100 µM throughout.

Regarding `C=CCN(N=O)C(=O)ON1C(=O)CCC1=O`, the concentration for total growth inhibition (TGI) in the test on A549 NSCLC, with EKVX NSCLC, in the test on HCC-2998 colon, with IGROV1 ovarian, in the test on OVCAR-5 ovarian and with SF-539 CNS was greater than 100 µM in each case. The total growth inhibition concentration (TGI) in the test with SNB-19 CNS, with TK-10 renal and with UO-31 renal was greater than 100 µM in each case.

For the compound `COc1cc2c(c(OC)c1OC)-c1ccc(SC)c(=O)cc1[C@@H](NC(=O)c1ccc(F)cc1)CC2`, the concentration for 50% growth inhibition (GI50) is 0.0489 µM and < 0.01 µM with A549 NSCLC; less than 0.01 µM in the test with EKVX NSCLC; less than 0.01 µM in the test on HCC-2998 colon; less than 0.01 µM in the test with IGROV1 ovarian; less than 0.01 µM in the test on SF-539 CNS; 0.0287 µM and < 0.01 µM in the test with SNB-19 CNS. The GI50 in the test with TK-10 renal was less than 0.01 µM. The TGI in the test with A549 NSCLC was greater than 100 µM; in the test on EKVX NSCLC, greater than 100 µM; in the test on HCC-2998 colon, 0.0572 µM and < 0.01 µM; in the test on IGROV1 ovarian, greater than 100 µM; in the test with OVCAR-5 ovarian it was greater than 100 µM; in the test with SF-539 CNS it was 0.0696 µM and < 0.01 µM. Further, the TGI in the test on TK-10 renal came out at 35.5 µM; in the test on UO-31 renal, 46.6 µM.

Turning to `Cc1cc(S(N)(=O)=O)c(S/C(=N\NS(=O)(=O)c2ccccc2)c2ccc(Cl)c(Cl)c2)cc1Cl`, the GI50 was 32.2 µM in the test with A549 NSCLC; 36.5 µM in the test with CAKI-1 renal; 48.1 µM in the test on EKVX NSCLC; 44 µM in the test with IGROV1 ovarian; 52.4 µM in the test with OVCAR-5 ovarian; 19.3 µM in the test on SF-539 CNS. Moreover, the GI50 in the test on SNB-19 CNS is 78.8 µM; with TK-10 renal, 52 µM; in the test on UO-31 renal, 54.5 µM. Further, the total growth inhibition concentration (TGI) was 96.9 µM in the test on A549 NSCLC; greater than 100 µM in the test on CAKI-1 renal; greater than 100 µM with EKVX NSCLC; greater than 100 µM in the test with IGROV1 ovarian; greater than 100 µM with OVCAR-5 ovarian; 64.3 µM in the test on SF-539 CNS. Besides, the TGI in the test with SNB-19 CNS, in the test with TK-10 renal and in the test on UO-31 renal was greater than 100 µM each time.

For `Cc1ccc(S(=O)c2ccc([N+](=O)[O-])c3nonc23)cc1` (stereo not drawn), the GI50 in the test on A549 NSCLC was 18.7 µM; in the test on CAKI-1 renal it was 3.12 µM; with HCC-2998 colon it was 15.6 µM; with IGROV1 ovarian, 12.2 µM; in the test with OVCAR-5 ovarian it was 9.5 µM; in the test with SF-539 CNS it was 19 µM. For the same compound, the GI50 in the test on SNB-19 CNS was 14.7 µM; in the test with TK-10 renal it was 2.53 µM; with UO-31 renal, 2.4 µM. The TGI with A549 NSCLC amounted to 39.5 µM; in the test with CAKI-1 renal, 11.3 µM; in the test on HCC-2998 colon, 29.4 µM; in the test with IGROV1 ovarian, 27.4 µM; with OVCAR-5 ovarian, 26.2 µM; in the test on SF-539 CNS it was 39.3 µM. In addition, the TGI is 33.9 µM in the test with SNB-19 CNS, 5.51 µM with TK-10 renal and 9.54 µM in the test with UO-31 renal.

For `COC(=O)C1=C(C(=O)OC)N(C(C)C)[C@H]2C(C(=O)OC)=C(C(=O)OC)N(C(C)C)[C@@H]12`, the TGI with A549 NSCLC, in the test on CAKI-1 renal, in the test on EKVX NSCLC, in the test with IGROV1 ovarian, in the test with OVCAR-5 ovarian and in the test with SF-539 CNS was greater than 100 µM throughout. Also, the TGI in the test on SNB-19 CNS, in the test on TK-10 renal and with UO-31 renal was greater than 100 µM in each case.

Regarding `CCOc1ccccc1NC(=O)CCC(=O)NN`, the TGI with A549 NSCLC, in the test on CAKI-1 renal, in the test with HCC-2998 colon, in the test with IGROV1 ovarian, with OVCAR-5 ovarian and in the test on SF-539 CNS was greater than 100 µM each time. The TGI with SNB-19 CNS, in the test with TK-10 renal and with UO-31 renal was greater than 100 µM each time.

As for `CCCCOP1(=O)C=CC(Cl)=C(C)C1` (stereo not drawn), the TGI with A549 NSCLC is greater than 100 µM; in the test on CAKI-1 renal, greater than 100 µM; in the test on EKVX NSCLC it was greater than 100 µM; in the test on SF-539 CNS, 36.3 µM; in the test on SNB-19 CNS, greater than 100 µM; in the test with TK-10 renal it was 75.1 µM. The same compound came in with a TGI with UO-31 renal greater than 100 µM.

Turning to `CN1C(=O)CC2(C)c3cc(C=O)ccc3N(C)C12` (stereo not drawn), the total growth inhibition concentration (TGI) with A549 NSCLC, in the test with EKVX NSCLC, in the test on HCC-2998 colon, in the test with IGROV1 ovarian, in the test with OVCAR-5 ovarian and in the test on SF-539 CNS was greater than 100 µM each time. Also, the TGI with SNB-19 CNS, in the test on TK-10 renal and with UO-31 renal was greater than 100 µM each time.

On to `O=C(/C(=N/Nc1cn[nH]c(=O)c1Cl)c1ccccc1)c1ccccc1`, for which the TGI was greater than 100 µM with A549 NSCLC; 93.1 µM in the test on CAKI-1 renal; 83.1 µM with EKVX NSCLC; 76.7 µM with HCC-2998 colon; 75.1 µM in the test with IGROV1 ovarian; 71.1 µM in the test with SF-539 CNS. The TGI in the test with SNB-19 CNS, with TK-10 renal and in the test on UO-31 renal was greater than 100 µM each time.

Consider `Cc1nnc(N=Nc2c(O)[nH]c3ccccc23)[nH]c1=O`, for which the concentration for total growth inhibition (TGI) in the test with A549 NSCLC, with EKVX NSCLC, in the test with IGROV1 ovarian, in the test on OVCAR-5 ovarian, in the test with SF-539 CNS and in the test with SNB-19 CNS was greater than 100 µM each time. The TGI in the test on TK-10 renal and in the test with UO-31 renal was greater than 100 µM in each case.

Consider `CC(=O)[O-].O=[N+]([O-])c1ccc([O-])c(C=NCCN=Cc2cc([N+](=O)[O-])ccc2[O-])c1.[Mn+3]`, for which the GI50 in the test with A549 NSCLC was greater than 100 µM; in the test with HCC-2998 colon, 74.5 µM; with IGROV1 ovarian it was 2.73 µM; in the test with SF-539 CNS, greater than 100 µM; with SNB-19 CNS, greater than 100 µM; in the test with TK-10 renal, greater than 100 µM. In addition, the GI50 in the test with UO-31 renal is greater than 100 µM. Besides, the TGI in the test with A549 NSCLC is greater than 100 µM; with HCC-2998 colon it was greater than 100 µM; in the test on IGROV1 ovarian, 19.9 µM; in the test with SF-539 CNS it was greater than 100 µM; with SNB-19 CNS it was greater than 100 µM; in the test on TK-10 renal, greater than 100 µM. For the same compound, the TGI with UO-31 renal is greater than 100 µM.
